Like-named read-outs stand apart in the source and are kept apart here.
Experiments:
NF-κB [1] = test: Luciferase activity of G418-resistant HeLa cell pool transfected with NF-κB-LUC after stimulation; assay type: cell-based; conditions: NF-κB-LUC (STM vector), quadruplicate samples, control 1369±149
Description: (§1) The fragment Kpn I-BamH I from the pGL3 basic vector containing the luciferase gene (PROMEGA) was inserted in the pcDNA3 vector (INVITROGEN) digested with Bgl II-KpnI. (This digestion removes the CMV-promoter from pcDNA3.) The resulting new vector was digested with Kpn I-Hind III and a promoter containing a ‘5xNF-κB binding sites—TATA box’ sequence was inserted upstream of the luciferase gene. This vector has been named STM.
(§2) To obtain stable HeLa cell lines expressing the luciferase gene under the control of NF-κB, HeLa cells were transfected (using lipofectamine plus GIBCO) with the STM-Pvu I linearized vector, and selected for 20 days with G418 (800 μg/ml). After selection, the resistant HeLa cell pool was controlled (in quadruplicate samples) for luciferase activity after stimulation with TNFα, IL-1 and TPA.

[2] = doses from 30 μg/kg/min; cited from earlier work
NF-κB [3] = conditions: same concentration (125-500 μM); cited from earlier work
HSF1 = conditions: concentration of 125-500 μM; cited from earlier work
Sendai virus = Sendai virus replication in 37RC cells (virus yield by HAU titration); assay type: cell-based; conditions: Respirovirus muris, 5 HAU/10^5 cells, virus yield at 24 hours after infection, read-out: ID50 (50% inhibitory dose/concentration), Sendai virus yield
uninfected 37RC cells = conditions: monkey
NF-κB [4] = test: EMSA of NF-κB DNA-binding activity in TPA-stimulated Jurkat T cells; assay type: cell-based, Human; conditions: Jurkat T cells treated 1 hour, then TPA 25 ng/ml, extracts after 3 hours; FIGS. 1(b)-6(b)
Experimental: Methods: Human lymphoblastoid Jurkat T cells were grown at 37° C. in a 5% CO2 atmosphere in RPM1 1640 medium (GIBCO BRL, Gaithersburg, Md.) supplemented with 10% fetal calf serum (FCS, Hyclone Europe Ltd, UK) 2 mM glutamine and antibiotics according to the method described by A. Rossi et al. (Proc. Natl. Acad. Sci. USA 94: 746-750, 1997). The test compounds were stored as a 100% ethanolic stock solution (100 mM) or in DMSO (100 mM) and diluted to the appropriate concentration in culture medium at the time of use. Cells were treated with different concentrations of test compound for 1 hour and then stimulated with 12-O-tetradecanoylphorbol-13-acetate (TPA, 25 ng/ml), which is a strong inducer of NF-κB. Control cells received an equal amount of control diluent. After 3 hours whole-cell extracts were prepared and subjected to analysis of DNA-binding activity by EMSA (Electrophoretic Mobility Shift Assay) for detection of HSF or NF-κB activation, according to the method described by A. Rossi et al. (Proc. Natl. Acad. Sci. USA 94: 746-750, 1997).
Specificity of protein-DNA complexes was verified by immunoreactivity with polyclonal antibodies specific for p65 (Rel A) or for HSF-1, for NF-κB and HSF respectively. Quantitative evaluation of NF-κB and HSF-DNA complex formation was determined by Molecular Dynamics Phosphorimager (MDP) analysis and was expressed in arbitrary units, as described in A. Rossi et al. (J. Biol. Chem. 273: 16446-16452, 1998). The results from representative experiments are shown in FIGS. 1(b), 2(b), 3(b), 4(b), 5 and 6(b) for compounds CTM-50, CTM-49, CTM-36, CTM-30, CTC-130 and CTC-109, as identified above.

37RC cells = test: in vitro; assay type: cell-based; conditions: 24 h treatment, read-out: LC50 (50% lethal dose/concentration), Neutral Red
Experimental: Cell viability was determined using the Neutral Red assay. 37RC cells were seeded at density of 6×10^4 cells/well in 24-well plates and incubated for 24 h. Confluent 37RC monolayers were treated with the test compounds at different dilutions for 24 h at 37° C. After incubation, the medium was removed and the cells were incubated with RPMI medium containing 40 μg/ml Neutral Red dye (500 μl/well). After 2 h at 37° C., the monolayers were washed with phosphate-buffered saline (PBS) and then with a solution containing 1% CaCl2 and 0.5% formaldehyde. After washing, a solution containing 1% acetic acid/50% ethanol was added to the monolayers (250 μl/well). After 10 min at room temperature, the absorbance was determined with a microplate reader (Victor 1420, Wallac) at 540 nm.

NF-κB [5] = test: NF-κB-dependent luciferase reporter gene assay, HeLa κB-transformed cells, TPA stimulated; assay type: cell-based; conditions: 8 h treatment, TPA 25 ng/ml 2 h after exposure, read-out: NF-κB, IC50 (concentration at which the compound halved the NF-κB activity)
Experimental: Method: HeLa cell clone 13B, stably transfected with a luciferase reporter plasmid controlled by the human hsp70 promoter, and HeLa κB-transformed cells, stably transfected with a luciferase reporter plasmid controlled by a synthetic NF-κB-STM construct, were maintained in DMEM medium supplemented with 10% FBS, L-glutamine (2 mM) and G418 (250 μg/ml) at 37° C. in a 5% CO2 humidified atmosphere.
Cells were seeded at a density of 4×10^4 cells/well in 96-well plates. After 18-20 h, the medium was removed and cells were treated for 8 h with the test compounds (100 μl) at the appropriate dilutions in serum-free medium. For the NF-κB-dependent reporter gene assay, cells were stimulated with TPA (25 ng/ml) 2 h after exposure to the compounds.
After incubation, the medium was removed and cells were lysed in 10 μl of lysis buffer. The luciferase activity was determined by adding 100 μl of substrate and measuring the release of light using a Victor 1420 microplate reader (Wallac, Finland).
as §1, §2
The AC200/μM for HSF is the concentration at which the tested compound doubled the HSF activity in this assay. The IC50/μM for NF-κB is the concentration at which the tested compound halved the NF-κB activity in this assay.

CCCCCCCCCCCCCC(=O)O[C@@H]1[C@@H](C)[C@@]2(O)[C@@H](C=C(CO)C[C@]3(O)C(=O)C(C)=C[C@@H]23)[C@@H]2C(C)(C)[C@]12OC(C)=O [TPA, 12-O-tetradecanoylphorbol-13-acetate]
luciferase activity (NF-κB [1]): 7181±444

CCCCC[C@H](O)/C=C/[C@H]1C=CC(=O)[C@@H]1CCCCCCC(=O)O [Prostaglandin A1]
effect on blood pressure [2]: dose-dependant falls in blood pressure

O=C1C=CCC1 [CTC-1, cyclopent-2-en-1-one, reference compound]
block of NF-κB activation by chemical or physiological inducers, result in words (NF-κB [3]): able to block NF-κB activation
HSF1 activation, result in words (HSF1): able to activate HSF1
IC50 (Sendai virus): 90 µM
TD100 (dose or concentration at which the compound was 100% toxic to uninfected cells) (uninfected 37RC cells): >500 µM

COC(=O)[C@H](CSC1=CC(=O)CC1)NC(=O)OC(C)(C)C [CTM-50]
NF-κB-DNA complex formation (EMSA), result in words (NF-κB [4]): inhibitors of NF-κB
IC50 (Sendai virus; 24 h): 10 µM
TD100 (dose or concentration at which the compound was 100% toxic to uninfected cells) (uninfected 37RC cells): >500 µM

CCCCC[C@H](O)/C=C/[C@H]1[C@H](O)CC(=O)[C@@H]1CCCCCCC(=O)O [Prostaglandin E1]
effect on blood pressure [2]: dose-dependant falls in blood pressure

COC(=O)[C@H](CSC1C=CC(=O)C1)NC(=O)OC(C)(C)C (some centres unmarked) [CTC-109]
NF-κB-DNA complex formation (EMSA), result in words (NF-κB [4]): inhibitors of NF-κB
IC50 (Sendai virus; 24 h): 3 µM
TD100 (dose or concentration at which the compound was 100% toxic to uninfected cells) (uninfected 37RC cells): 500 µM

TNFα
luciferase activity (NF-κB [1]): 6111±1231

CC(C)(C)C(=O)O[C@H]1[C@H](Sc2ccc3ccccc3c2)CC(=O)C1(C)C (stereo in doubt) [CTM-192, 2,2-dimethylpropionic acid (1R,5R)-2,2-dimethyl-5-(naphthalen-2-ylsulfanyl)-3-oxocyclopentyl ester]
CC50 (37RC cells): 22 µM
IC50 (NF-κB [5]): 28 µM
TD100 (dose or concentration at which the compound was 100% toxic to uninfected cells) (uninfected 37RC cells): 50 µM

Reference: patent US7759399B2, “Pharmaceutical compositions” (priority 2002, dated 2010)
